From article PMC11672637, “7-O-Carboxylic Acid-Substituted 3-O-Alkyl Difluoroquercetin; An Aztreonam-Potentiating Agent Against Carbapenemase-Producing Pseudomonas aeruginosa Through Simultaneous Inhibition of Metallo-β-Lactamase and Efflux Pump” (Antibiotics, 2024)
Converted amounts (≈) assume the structure as drawn. Read-outs that look alike come from different tables or passages of the source.

How the values were obtained:
[1] = tested on: PA-014, blaGES; experiment: MIC / checkerboard with ATM; assay type: cell-based, P. aeruginosa; parameters: key to Susceptibility category: S: susceptible; I: intermediate; R: resistant
[2] = tested on: PA-016, blaIMP; experiment: MIC / checkerboard with ATM; assay type: cell-based, P. aeruginosa; parameters: key to Susceptibility category: S: susceptible; I: intermediate; R: resistant
[3] = tested on: PA-027, blaIMP; experiment: MIC / checkerboard with ATM; assay type: cell-based, P. aeruginosa; parameters: key to Susceptibility category: S: susceptible; I: intermediate; R: resistant; conditions: for MIC: Pseudomonas aeruginosa
[4] = tested on: PA-040, blaNDM; experiment: MIC / checkerboard with ATM; assay type: cell-based, P. aeruginosa; parameters: key to Susceptibility category: S: susceptible; I: intermediate; R: resistant; conditions: for MIC: Pseudomonas aeruginosa
[5] = tested on: PA-041, blaNDM; experiment: MIC / checkerboard with ATM; assay type: cell-based, P. aeruginosa; parameters: key to Susceptibility category: S: susceptible; I: intermediate; R: resistant; conditions: for MIC: Pseudomonas aeruginosa
[6] = tested on: PA-042, blaIMP/NDM; experiment: MIC / checkerboard with ATM; assay type: cell-based, P. aeruginosa; parameters: key to Susceptibility category: S: susceptible; I: intermediate; R: resistant; conditions: for MIC: Pseudomonas aeruginosa
[7] = tested on: ATM-Resistant CPPA (n = 15); experiment: MIC distribution over clinical isolates; assay type: cell-based, P. aeruginosa; conditions: Pseudomonas aeruginosa
[8] = tested on: wild-type P. aeruginosa (ATCC 27853); experiment: Time–kill assay; assay type: cell-based; conditions: 24 h
Description: (§1) Aliquots (50 μL) were taken from the incubation mixture at regular time intervals (t = 0, 3, 6, and 24 h), serially diluted in 0.85% NaCl solution, and plated on BAP. Bacterial colonies were counted, and the data are presented as the means of at least three independent experiments.

[9] = tested on: PA-002, blaIMP; experiment: Time–kill assay; assay type: cell-based, P. aeruginosa; conditions: 24 h
Description: as §1

[10] = tested on: PA-003, blaVIM; experiment: Time–kill assay; assay type: cell-based, P. aeruginosa; conditions: 24 h
Description: as §1

[11] = tested on: PA-014, blaGES; experiment: Time–kill assay; assay type: cell-based, P. aeruginosa; conditions: 24 h
Description: as §1

[12] = tested on: PA-017, blaNDM; experiment: Time–kill assay; assay type: cell-based, P. aeruginosa; conditions: 24 h
Description: as §1

With `C[C@H]1[C@H](NC(=O)/C(=N\OC(C)(C)C(=O)O)c2csc(N)n2)C(=O)N1S(=O)(=O)O` [ATM, aztreonam] the “Susceptibility to ATM” value ([1]; PA-014, ATM alone) was “I (I (intermediate, MIC = 16 mg/L))”, the Susceptibility category ([1]; PA-014, Table S2) was “I” and the MIC ([1]; Pseudomonas aeruginosa, read-out: MIC of ATM, PA-014, ATM alone (5 at 0 mg/L)) was 16 µg/mL. The “Susceptibility to ATM” value ([2]; PA-016, ATM alone) was “R (R (resistant, MIC ≥ 32 mg/L))”, the Susceptibility category ([2]; PA-016, Table S2) was “R” and the MIC ([2]; Pseudomonas aeruginosa, read-out: MIC of ATM, PA-016, ATM alone (5 at 0 mg/L)) was 32 µg/mL. The “Susceptibility to ATM” value ([3]; PA-027, ATM alone) was “R (R (resistant, MIC ≥ 32 mg/L))”, the Susceptibility category ([3]; PA-027, Table S2) was “R” and the MIC ([3]; PA-027, Table S2, read-out: MIC value) was 32 µg/mL. The MIC ([3]; read-out: MIC of ATM, PA-027, ATM alone (5 at 0 mg/L)) was 32 µg/mL, the “Susceptibility to ATM” value ([4]; PA-040, ATM alone) was “S (S (sensitive, MIC ≤ 8 mg/L))” and the Susceptibility category ([4]; PA-040, Table S2) was “S”. The MIC ([4]; PA-040, Table S2, read-out: MIC value) was 4 µg/mL, the MIC ([4]; read-out: MIC of ATM, PA-040, ATM alone (5 at 0 mg/L)) was 4 µg/mL and the “Susceptibility to ATM” value ([5]; PA-041, ATM alone) was “S (S (sensitive, MIC ≤ 8 mg/L))”. The Susceptibility category ([5]; PA-041, Table S2) was “S”, the MIC ([5]; PA-041, Table S2, read-out: MIC value) was 4 µg/mL and the MIC ([5]; read-out: MIC of ATM, PA-041, ATM alone (5 at 0 mg/L)) was 4 µg/mL. For the same compound, the “Susceptibility to ATM” value ([6]; PA-042, ATM alone) was “S (S (sensitive, MIC ≤ 8 mg/L))”, the Susceptibility category ([6]; PA-042, Table S2) was “S” and the MIC ([6]; PA-042, Table S2, read-out: MIC value) was 2 µg/mL. It also gave an MIC ([6]; read-out: MIC of ATM, PA-042, ATM alone (5 at 0 mg/L)) of 2 µg/mL, an MIC50 ([7]; read-out: MIC50 of ATM, 5 at 0 mg/L) of 16 µg/mL (≈ 36.7 µM) and an MIC90 ([7]; read-out: MIC90 of ATM, 5 at 0 mg/L) of 64 µg/mL (≈ 147 µM). The “Log CFU/mL, ATM only” value ([8]; ATM 1/2 MIC) was 9.31 Log CFU/mL, the “Log CFU/mL, ATM only” value ([8]; ATM 1/4 MIC) was 9.57 Log CFU/mL and the “Log CFU/mL, ATM only” value ([8]; ATM 1 MIC) was 8.02 Log CFU/mL. For the same compound, the “Log CFU/mL, ATM only” value ([8]; ATM 2 MIC) was 0.17 Log CFU/mL, the “Log CFU/mL, ATM only” value ([9]; ATM 1/2 MIC) was 9.02 Log CFU/mL and the “Log CFU/mL, ATM only” value ([9]; ATM 1/4 MIC) was 9.48 Log CFU/mL. For the same compound, the “Log CFU/mL, ATM only” value ([9]; ATM 1 MIC) was 8.15 Log CFU/mL, the “Log CFU/mL, ATM only” value ([9]; ATM 2 MIC) was 5.50 Log CFU/mL and the “Log CFU/mL, ATM only” value ([10]; ATM 1/2 MIC) was 9.88 Log CFU/mL. The “Log CFU/mL, ATM only” value ([10]; ATM 1/4 MIC) was 10.18 Log CFU/mL, the “Log CFU/mL, ATM only” value ([10]; ATM 1 MIC) was 9.13 Log CFU/mL and the “Log CFU/mL, ATM only” value ([10]; ATM 2 MIC) was 6.40 Log CFU/mL. For the same compound, the “Log CFU/mL, ATM only” value ([11]; ATM 1/2 MIC) was 8.83 Log CFU/mL, the “Log CFU/mL, ATM only” value ([11]; ATM 1/4 MIC) was 9.33 Log CFU/mL and the “Log CFU/mL, ATM only” value ([11]; ATM 1 MIC) was 7.68 Log CFU/mL. The “Log CFU/mL, ATM only” value ([11]; ATM 2 MIC) was 2.45 Log CFU/mL, the “Log CFU/mL, ATM only” value ([12]; ATM 1/2 MIC) was 9.97 Log CFU/mL and the “Log CFU/mL, ATM only” value ([12]; ATM 1/4 MIC) was 10.74 Log CFU/mL. For the same compound, the “Log CFU/mL, ATM only” value ([12]; ATM 1 MIC) was 6.52 Log CFU/mL and the “Log CFU/mL, ATM only” value ([12]; ATM 2 MIC) was 0.12 Log CFU/mL.
